The values that follow come from paper PMC13376172, “BromoCatch: a self-labelling tag platform for protein modification and live cell imaging” (Nature Communications, 2026).

Assay [1] has as its target T1, Brd4-BD2 L387A,E438C (BromoCatch) (Homo sapiens, UniProt O60885, L387A/E438C).
T1 construct: Brd4-BD2 (351–459)
As to the kind of experiment: intact protein LC-MS covalent adduct; DSF. The assay is classed as binding.

Assay [2] has as its target T2, Brd4-BD2 L387A,E438C (BromoCatch) (Homo sapiens, UniProt O60885, E438C/L387A). As to the kind of experiment: biochemical.
Assay [3] deals with Brd4-BD2 L387A,M442C (Homo sapiens, UniProt O60885, L387A/M442C).
Assay [4] addresses T2, Brd4-BD2 L387A,E438C (BromoCatch). In words: competition FP kinetics (kinact/KI); intact protein MS; DSF ΔTm +[…] °C; streptavidin pull-down. It is filed as binding. Further details: Brd4-BD2. Particulars: read-out: kinact_KI.

Consider `C=CC(=O)Nc1cccc(C2=N[C@@H]([C@@H](CC)C(=O)OC)c3nnc(C)n3-c3sc(C)c(C)c32)c1` [MR119], for which the “intact protein LC-MS covalent adduct; DSF” value in assay [1] was “Brd4-BD2^L387A,E438C exhibited excellent reactivity towards both meta and para electrophilic ligands”. Take `CC[C@@H](C(=O)OC)[C@@H]1N=C(c2cccc(NC(=O)CCl)c2)c2c(sc(C)c2C)-n2c(C)nnc21` [MR118]: the “intact protein LC-MS covalent adduct; DSF” value in assay [1] was “the chloroacetamides MR112 and MR118 demonstrated a slight improvement in potency”. In general, Ki refers to a measure of affinity in units of concentration, obtained from inhibition or displacement. `C=CC(=O)Nc1ccc(C2=N[C@@H]([C@@H](CC)C(=O)OC)c3nnc(C)n3-c3sc(C)c(C)c32)cc1` [MR116]: affinity in assay [2] was put at a Ki of 6.8 nM. Moreover, in assay [3], the “intact protein LC-MS covalent adduct; DSF” value is “(acrylamide, chloroacetamide, vinyl sulfonamide and epoxide) showed covalent modification of both cysteine-containing mutants”. As for `CC[C@@H](C(=O)OC)[C@@H]1N=C(c2ccc(NC(=O)CCl)cc2)c2c(sc(C)c2C)-n2c(C)nnc21` [MR112], in assay [1], the “intact protein LC-MS covalent adduct; DSF” value is “para chloroacetamide (MR112), vinyl sulfonamide (MR121) and acrylamide (MR116) performed as the best combinations”. On to `C=CS(=O)(=O)Nc1ccc(C2=N[C@@H]([C@@H](CC)C(=O)OC)c3nnc(C)n3-c3sc(C)c(C)c32)cc1` [MR121], for which, in assay [1], the “intact protein LC-MS covalent adduct; DSF” value was “vinyl sulfonamide (MR121) and acrylamide (MR116) performed as the best combinations, providing the highest percentage of covalent engagement”. As to `C=CC(=O)Nc1ccc(C2=N[C@@H]([C@@H](CC)C(=O)NCCOCCOCCOCCOCCNC(=O)CCCC[C@@H]3SC[C@@H]4NC(=O)N[C@@H]43)c3nnc(C)n3-c3sc(C)c(C)c32)cc1` [MR169], the kinact/KI in assay [4] came out at 37000 M⁻¹ s⁻¹.
